Results reported in patent publication US20050148627A1, “Benzopyran compounds for use in the treatment and prevention of inflammation related conditions” (priority 2003, published 2005).
Several values for one entry are separate records, joined by “and”; a condition that tells them apart may be missing. Identical values can stand only once.

Target: COX-1 (Homo sapiens, UniProt P23219)
Test: biochemical

COX-1, sequence (P23219 24-599): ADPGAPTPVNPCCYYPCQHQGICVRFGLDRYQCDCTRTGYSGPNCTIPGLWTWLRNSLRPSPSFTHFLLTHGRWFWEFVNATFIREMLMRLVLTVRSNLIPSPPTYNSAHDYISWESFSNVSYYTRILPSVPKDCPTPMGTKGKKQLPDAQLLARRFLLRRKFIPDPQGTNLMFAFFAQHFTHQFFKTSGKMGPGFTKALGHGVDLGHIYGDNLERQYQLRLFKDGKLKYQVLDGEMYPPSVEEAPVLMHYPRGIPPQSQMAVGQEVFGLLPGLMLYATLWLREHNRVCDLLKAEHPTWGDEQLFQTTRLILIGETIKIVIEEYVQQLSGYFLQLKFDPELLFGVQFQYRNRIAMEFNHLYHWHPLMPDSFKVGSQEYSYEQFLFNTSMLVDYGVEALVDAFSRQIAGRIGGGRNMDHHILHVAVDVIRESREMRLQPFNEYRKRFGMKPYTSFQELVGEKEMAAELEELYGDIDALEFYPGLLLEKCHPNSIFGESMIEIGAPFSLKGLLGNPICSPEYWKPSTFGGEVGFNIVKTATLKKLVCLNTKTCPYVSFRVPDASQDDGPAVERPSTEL

In the case of `CC(c1ccccc1)c1ccc2c(c1)OC(C(F)(F)F)C(C(=O)O)=C2` (stereo not shown) [Example 37b, 7-(1-phenylethyl)-2-(trifluoromethyl)-2H-chromene-3-carboxylic acid], the IC50 is reported as greater than 100 µM.
`O=C(O)C1=Cc2cc(Cl)c(Cc3ccccc3Cl)cc2OC1C(F)(F)F` (stereo not shown) [Example 9n, 6-chloro-7-(2-chlorobenzyl)-2-(trifluoromethyl)-2H-chromene-3-carboxylic acid] showed an IC50 of 0.425 µM.
With `Cc1cc2c(c(C)c1Cl)C=C(C(=O)O)C(C(F)(F)F)O2` (stereo not shown) [Example 100, 6-chloro-5,7-dimethyl-2-(trifluoromethyl)-2H-chromene-3-carboxylic acid] the IC50 was 30.2 µM and 29.4 µM.
`CN(Cc1ccccc1)c1cc2c(cc1Cl)C=C(C(=O)O)C(C(F)(F)F)O2` (stereo not shown) [Example 8i, 7-[benzyl(methyl)amino]-6-chloro-2-(trifluoromethyl)-2H-chromene-3-carboxylic acid] showed an IC50 of 14.1 µM.
In the case of `CCCCOc1c(Cl)c(Cl)c(Cl)c2c1OC(C(F)(F)F)C(C(=O)O)=C2` (stereo not shown) [Example 28b, 8-butoxy-5,6,7-trichloro-2-(trifluoromethyl)-2H-chromene-3-carboxylic acid], the IC50 is reported as 41.7 µM.
With `COc1ccc(Cl)c2c1OC(C(F)(F)F)C(C(=O)O)=C2` (stereo not shown) [Example 23d, 5-chloro-8-methoxy-2-(trifluoromethyl)-2H-chromene-3-carboxylic acid] the IC50 was greater than 500 µM.
Work on `COc1ccc(Br)c2c1OC(C(F)(F)F)C(C(=O)O)=C2` (stereo not shown) [Example 24a, 5-bromo-8-methoxy-2-(trifluoromethyl)-2H-chromene-3-carboxylic acid] yielded an IC50 greater than 500 µM.
For `O=C(O)C1=Cc2c(Cl)ccc(OCc3ccccc3)c2OC1C(F)(F)F` (stereo not shown) [Example 23c, 8-(benzyloxy)-5-chloro-2-(trifluoromethyl)-2H-chromene-3-carboxylic acid], the IC50 was 48.4 µM and 62.6 µM.
Work on `C=C(C)c1cc2c(cc1Cl)C=C(C(=O)O)C(C(F)(F)F)O2` (stereo not shown) [Example 113, 6-chloro-7-isopropenyl-2-(trifluoromethyl)-2H-chromene-3-carboxylic acid] yielded an IC50 greater than 100 µM.
In the case of `CCC(C)Sc1cc2c(cc1Cl)C=C(C(=O)O)C(C(F)(F)F)O2` (stereo not shown) [Example 7g, 7-(sec-butylthio)-6-chloro-2-(trifluoromethyl)-2H-chromene-3-carboxylic acid], the IC50 is reported as 7.2 µM and 6.35 µM.
For `CC1CCCN(c2cc3c(cc2Cl)C=C(C(=O)O)C(C(F)(F)F)O3)C1` (stereo not shown) [Example 8b, 6-chloro-7-(3-methylpiperidin-1-yl)-2-(trifluoromethyl)-2H-chromene-3-carboxylic acid], the IC50 was 99 µM and 189 µM.
`CCc1ccc2c(c1)C=C(C(=O)O)[C@@H](C(F)(F)F)O2` (single isomer, unassigned) [Example 34b] was tested, and the IC50 was 57.9 µM and 35.5 µM.
With `CCc1cc(OC(F)(F)F)cc2c1OC(C(F)(F)F)C(C(=O)O)=C2` (stereo not shown) [Example 21g, 8-ethyl-6-(trifluoromethoxy)-2-(trifluoromethyl)-2H-chromene-3-carboxylic acid] the IC50 was 24.4 µM and 21.6 µM and 9.14 µM and 10.7 µM.
For `O=C(O)C1=Cc2cc(Cl)c(N3CC=CCC3)cc2OC1C(F)(F)F` (stereo not shown) [Example 8e, 6-chloro-7-(3,6-dihydropyridin-1(2H)-yl)-2-(trifluoromethyl)-2H-chromene-3-carboxylic acid], the IC50 was > 100 µM and 130 µM.
In the case of `CC(C)CCSc1cc2c(cc1Cl)C=C(C(=O)O)C(C(F)(F)F)O2` (stereo not shown) [Example 7b, 6-chloro-7-(isopentylthio)-2-(trifluoromethyl)-2H-chromene-3-carboxylic acid], the IC50 is reported as greater than 100 µM.
For `CCSc1cc2c(cc1Cl)C=C(C(=O)O)C(C(F)(F)F)O2` (stereo not shown) [Example 7a, 6-chloro-7-(ethylthio)-2-(trifluoromethyl)-2H-chromene-3-carboxylic acid], the IC50 was greater than 100 µM.
For `O=C(O)C1=Cc2c(cc(Cc3ccccc3)c(Cl)c2Cl)OC1C(F)(F)F` (stereo not shown) [Example 13, 7-benzyl-5,6-dichloro-2-(trifluoromethyl)-2H-chromene-3-carboxylic acid], the IC50 was 4.18 µM and 2.79 µM.
For `C=CCc1cc(OC(F)(F)F)cc2c1OC(C(F)(F)F)C(C(=O)O)=C2` (stereo not shown) [Example 21s, 8-allyl-6-(trifluoromethoxy)-2-(trifluoromethyl)-2H-chromene-3-carboxylic acid], the IC50 was > 100 µM and 119 µM.
With `O=C(O)C1=Cc2cc(Cl)c(CCC3CCCCC3)cc2OC1C(F)(F)F` (stereo not shown) [Example 9i, 6-chloro-7-(2-cyclohexylethyl)-2-(trifluoromethyl)-2H-chromene-3-carboxylic acid] the IC50 was 12.7 µM and 12.5 µM.
`COCCOc1ccc2c(c1)OC(C(F)(F)F)C(C(=O)O)=C2` (stereo not shown) [Example 5e, 7-(2-methoxyethoxy)-2-(trifluoromethyl)-2H-chromene-3-carboxylic acid] showed an IC50 greater than 100 µM.
In the case of `Cc1cc(Cl)cc2c1O[C@@H](C(F)(F)F)C(C(=O)O)=C2` (single isomer, unassigned) [Example 21u], the IC50 is reported as greater than 100 µM.
`COc1cc(Cl)c(Cl)c2c1OC(C(F)(F)F)C(C(=O)O)=C2` (stereo not shown) [Example 23e, 5,6-dichloro-8-methoxy-2-(trifluoromethyl)-2H-chromene-3-carboxylic acid] was tested, and the IC50 was 0.471 µM and < 0.132 µM.
`CCCCc1cc(OC(F)(F)F)cc2c1OC(C(F)(F)F)C(C(=O)O)=C2` (stereo not shown) [Example 21r, 8-butyl-6-(trifluoromethoxy)-2-(trifluoromethyl)-2H-chromene-3-carboxylic acid] showed an IC50 of 83.8 µM.
With `CCCC(=O)NCc1cc2c(cc1Cl)C=C(C(=O)O)C(C(F)(F)F)O2` (stereo not shown) [Example 16, 7-[(butyrylamino)methyl]-6-chloro-2-(trifluoromethyl)-2H-chromene-3-carboxylic acid] the IC50 was greater than 100 µM.
In the case of `CC(C)(C)c1cc(Cl)c2c(c1)C=C(C(=O)O)C(C(F)(F)F)O2` (stereo not shown) [Example 35, 6-tert-butyl-8-chloro-2-(trifluoromethyl)-2H-chromene-3-carboxylic acid], the IC50 is reported as 2.87 µM.
In the case of `CCCCOc1c(Cl)cc2c(c1C)OC(C(F)(F)F)C(C(=O)O)=C2` (stereo not shown) [Example 3f, 7-butoxy-6-chloro-8-methyl-2-(trifluoromethyl)-2H-chromene-3-carboxylic acid], the IC50 is reported as 7.09 µM and 9.55 µM and 9.09 µM.
Molecule `Cc1ccc(Cc2cc3c(cc2Cl)C=C(C(=O)O)C(C(F)(F)F)O3)cc1Cl` (stereo not shown) [Example 9y, 6-chloro-7-(3-chloro-4-methylbenzyl)-2-(trifluoromethyl)-2H-chromene-3-carboxylic acid] has an IC50 of 4.69 µM.
`O=C(O)C1=Cc2cc(Cl)c(NCc3ccccc3)cc2OC1C(F)(F)F` (stereo not shown) [Example 8k, 7-(benzylamino)-6-chloro-2-(trifluoromethyl)-2H-chromene-3-carboxylic acid] gave an IC50 greater than 100 µM.
In the case of `CCCCc1cc2c(cc1Cl)C=C(C(=O)O)C(C(F)(F)F)O2` (stereo not shown) [Example 9a, 7-butyl-6-chloro-2-(trifluoromethyl)-2H-chromene-3-carboxylic acid], the IC50 is reported as 9.97 µM and 5.11 µM and 9.72 µM and 5.97 µM and 8.31 µM and 9.5 µM and > 1.2 µM.
For `COc1cc2c(c(Cl)c1Cl)OC(C(F)(F)F)C(C(=O)O)=C2` (stereo not shown) [Example 19, 7,8-dichloro-6-methoxy-2-(trifluoromethyl)-2H-chromene-3-carboxylic acid], the IC50 was 82.1 µM and 34.7 µM.
With `Cc1cc2c(c(C)c1Cl)C=C(C(=O)O)[C@H](C(F)(F)F)O2` [Example 101, (2R)-6-chloro-5,7-dimethyl-2-(trifluoromethyl)-2H-chromene-3-carboxylic acid] the IC50 was > 100 µM and 430 µM and > 500 µM.
With `CNc1c(Cl)cc2c(c1Cl)OC(C(F)(F)F)C(C(=O)O)=C2` (stereo not shown) [Example 38b, 6,8-dichloro-7-(methylamino)-2-(trifluoromethyl)-2H-chromene-3-carboxylic acid] the IC50 was greater than 100 µM.
Molecule `Cc1cc(Br)c2c(c1)C=C(C(=O)O)C(C(F)(F)F)N2` (stereo not shown) [Example 46, 8-Bromo-6-methyl-2-(trifluoromethyl)-1,2-dihydroquinoline-3-carboxylic acid] has an IC50 greater than 100 µM.
`CCCOc1c(Cl)cc2c(c1C)OC(C(F)(F)F)C(C(=O)O)=C2` (stereo not shown) [Example 3c, 6-chloro-8-methyl-7-propoxy-2-(trifluoromethyl)-2H-chromene-3-carboxylic acid] was tested, and the IC50 was 2.3 µM.
For `O=C(O)C1=Cc2cc(O)cc(Cl)c2OC1C(F)(F)F` (stereo not shown) [Example 17b, 8-chloro-6-hydroxy-2-(trifluoromethyl)-2H-chromene-3-carboxylic acid], the IC50 was > 100 µM and 455 µM.
With `O=C(O)C1=Cc2cc(OC3CCCCC3)cc(Cl)c2OC1C(F)(F)F` (stereo not shown) [Example 17g, 8-chloro-6-(cyclohexyloxy)-2-(trifluoromethyl)-2H-chromene-3-carboxylic acid] the IC50 was 0.5 µM and 0.392 µM.
`O=C(O)C1=Cc2ccc(Cc3ccc(F)cc3)cc2OC1C(F)(F)F` (stereo not shown) [Example 9bb, 7-(4-fluorobenzyl)-2-(trifluoromethyl)-2H-chromene-3-carboxylic acid] gave an IC50 of 37.4 µM.
Molecule `Cc1c(O)c(Cl)cc2c1OC(C(F)(F)F)C(C(=O)O)=C2` (stereo not shown) [Example 3i, 6-chloro-7-hydroxy-8-methyl-2-(trifluoromethyl)-2H-chromene-3-carboxylic acid] has an IC50 greater than 97.6 µM.
`O=C(O)C1=Cc2cc(Cl)c(OCc3ccccc3)c(Cl)c2OC1C(F)(F)F` (stereo not shown) [Example 1g, 7-(benzyloxy)-6,8-dichloro-2-(trifluoromethyl)-2H-chromene-3-carboxylic acid] was tested, and the IC50 was 21 µM.
For `CCc1cc(OC(F)(F)F)cc2c1O[C@H](C(F)(F)F)C(C(=O)O)=C2` (single isomer, unassigned) [Example 21k], the IC50 was 23.4 µM and 27 µM and 9.26 µM and 11 µM.
For `CC(C)c1cc2c(cc1Cl)C=C(C(=O)O)C(C(F)(F)F)O2` (stereo not shown) [Example 9f, 6-chloro-7-isopropyl-2-(trifluoromethyl)-2H-chromene-3-carboxylic acid], the IC50 was 147 µM and > 100 µM.
For `COc1cc(Cl)c2c(c1)C=C(C(=O)O)[C@H](C(F)(F)F)O2` (single isomer, unassigned) [Example 17h], the IC50 was greater than 100 µM.
In the case of `CC(C)(C)CCc1cc2c(cc1Cl)C=C(C(=O)O)C(C(F)(F)F)O2` (stereo not shown) [Example 9b, 6-chloro-7-(3,3-dimethylbutyl)-2-(trifluoromethyl)-2H-chromene-3-carboxylic acid], the IC50 is reported as 19 µM and 17.9 µM.
In the case of `CCCN(CC1CC1)c1cc2c(cc1Cl)C=C(C(=O)O)C(C(F)(F)F)O2` (stereo not shown) [Example 8g, 6-chloro-7-[(cyclopropylmethyl)(propyl)amino]-2-(trifluoromethyl)-2H-chromene-3-carboxylic acid], the IC50 is reported as > 100 µM and 194 µM.
`O=C(O)C1=Cc2ccc(C(=O)c3cccnc3)cc2OC1C(F)(F)F` (stereo not shown) [Example 11, 7-(pyridin-3-ylcarbonyl)-2-(trifluoromethyl)-2H-chromene-3-carboxylic acid] was tested, and the IC50 was greater than 100 µM.
`CCOc1cc(C)cc2c1OC(C(F)(F)F)C(C(=O)O)=C2` (stereo not shown) [Example 31, 8-ethoxy-6-methyl-2-(trifluoromethyl)-2H-chromene-3-carboxylic acid] was tested, and the IC50 was greater than 500 µM.
